Data: patent US20140364417A1, “METHOD OF TREATING ATRIAL FIBRILLATION” (Gilead Sciences, Inc., priority 2013, published 2014)

Legend:
[1] = test system: AV node and ventricular Purkinje system; settings: ivabradine 0.2 mg/kg, i.v., cited from earlier work
[2] = Plasma level determination by LC/MS/MS in pigs; type: in vivo; settings: pig; at the time of testing combined administration with ivabradine
Experimental: Blood samples were collected in sodium heparin tubes at 0 and 30 minutes following ranolazine bolus administration and at 0, 15, and 30 minutes after ivabradine bolus administration. The samples were centrifuged and frozen at −80° C. until drug level determination was performed. Concentrations of ivabradine and ranolazine in plasma were determined at Gilead Sciences, Inc. (Foster City Calif.). Plasma was analyzed using a high-performance liquid chromatography-tandem mass spectrometric assay (LC/MS/MS). The quantification limit of ivabradine was 4 nM (1.87 ng/mL). The dynamic range of quantification was 4-10 000 nM (1.87-4686 ng/mL). Ranolazine and an internal standard were extracted with the protein precipitation extraction method. The dynamic range of quantification for ranolazine was 45.8-23,400.

Compound | heart rate ([1]; Thollon 1997, Camm and Lau 2003) | conductivity, refractoriness or repolarization duration of AV node and ventricular Purkinje system [1] | plasma level of ranolazine [2] [µM]
COc1cc2c(cc1OC)CC(=O)N(CCCN(C)C[C@H]1Cc3cc(OC)c(OC)cc31)CC2 [ivabradine, 3-{3-[{[(7S)-3,4-dimethoxybicyclo[4.2.0]octa-1,3,5-trien-7-yl]methyll}-(methyl)amino]propyl}-7,8-dimethoxy-1,3,4,5-tetrahydro-2H-3-benzapenin-2-one] | lowers heart rate | without causing changes | 
COc1ccccc1OCC(O)CN1CCN(CC(=O)Nc2c(C)cccc2C)CC1 (racemic) [ranolazine, (±)-N-(2,6-dimethylphenyl)-4-[2-hydroxy-3-(2-methoxyphenoxy)-propyl]-1-piperazineacetamide] |  |  | 9.8 ± 1.5
